Here are results for 7 molecules from ChEMBL document CHEMBL1140489, “New biologically active epidioxysterols from Stereum hirsutum” (2007).

Common to all, as to format: functional
For one test, the system named is Staphylococcus aureus. The experiment in a line: Antibacterial activity against staphylococcus aureus ATCC 25923.
The next test has as its system Pseudomonas aeruginosa. Description: Antibacterial activity against Pseudomonas aeruginosa ATCC 27753.
Test [1] concerns Mycobacterium tuberculosis. The experiment in a line: Antibacterial activity against Mycobacterium tuberculosis H37Rv by microdilution resazurin assay.
The subject of the next test is Candida. Description: Antifungal activity against Candida sp.
The test system of a further test is Escherichia coli. Description: Antibacterial activity against Escherichia coli ATCC […].

As a reminder, the MIC is the lowest concentration that inhibits growth of the organism. Low values mean a more susceptible organism, high ones a less susceptible organism.

Values after ≈ are worked out from the molar mass of the structure shown.

For `O=C(O)c1cn(C2CC2)c2cc(N3CCNCC3)c(F)cc2c1=O` [CIPROFLOXACIN], the values for the MIC (against Staphylococcus aureus; with Pseudomonas aeruginosa; in test [1]) were 0.5 µg/mL (≈ 1.51 µM), 1 µg/mL (≈ 3.02 µM) and 0.5 µg/mL (≈ 1.51 µM), respectively.

Consider `Cn1c([N+](=O)[O-])cnc1C#Cc1ccnc(N)n1`, for which the MIC with Candida was > 512 µg/mL; in the test on Staphylococcus aureus, > 512 µg/mL; in the test with Escherichia coli, > 512 µg/mL; in the test on Pseudomonas aeruginosa, > 512 µg/mL; in test [1], 16 µg/mL (≈ 65.5 µM).

Take `CC[C@@H](/C=C/[C@@H](C)[C@H]1CC[C@@H]2[C@]1(C)CC[C@H]1[C@]23C=C[C@]2(C[C@@H](O)CC[C@]12C)OO3)C(C)C`: the MIC was > 512 µg/mL with Candida; > 512 µg/mL in the test on Staphylococcus aureus; > 512 µg/mL against Escherichia coli; > 512 µg/mL in the test on Pseudomonas aeruginosa; 64 µg/mL (≈ 145 µM) in test [1].

`Clc1ccc(COC(Cn2ccnc2)c2ccc(Cl)cc2Cl)c(Cl)c1` (centres undefined) [MICONAZOLE]: the minimum inhibitory concentration (MIC) against Candida was found to be 0.25 µg/mL (≈ 0.601 µM).

As for `CC(C)[C@@H](C)/C=C/[C@@H](C)[C@H]1CC[C@@H]2[C@]1(C)CC=C1[C@]23C=C[C@]2(C[C@@H](O)CC[C@]12C)OO3`, the MIC in the test with Candida is > 512 µg/mL; against Staphylococcus aureus, > 512 µg/mL; against Escherichia coli it was > 512 µg/mL; in the test on Pseudomonas aeruginosa, > 512 µg/mL; in test [1], 16 µg/mL (≈ 37.5 µM).

Consider `CC(C)[C@@H](C)/C=C/[C@@H](C)[C@H]1CC[C@@H]2[C@]1(C)CC[C@H]1[C@]23C=C[C@]2(C[C@@H](O)CC[C@]12C)OO3` [ERGOSTEROL PEROXIDE], for which the minimal inhibitory concentration (MIC) against Candida is > 512 µg/mL; against Staphylococcus aureus, > 512 µg/mL; against Escherichia coli it was > 512 µg/mL; with Pseudomonas aeruginosa, > 512 µg/mL; in test [1], 64 µg/mL (≈ 149 µM).

For `CC(C)C/C=C/[C@@H](C)[C@H]1CC[C@@H]2[C@]1(C)CC=C1[C@]23C=C[C@]2(C[C@@H](O)CC[C@]12C)OO3`, the minimum inhibitory concentration (MIC) in the test with Candida was > 512 µg/mL; with Staphylococcus aureus it was > 512 µg/mL; in the test with Escherichia coli, > 512 µg/mL; in the test with Pseudomonas aeruginosa, > 512 µg/mL; in test [1], 16 µg/mL (≈ 38.8 µM).
